Data from patent EP0517918B1, “MONOCLONAL ANTIBODY AGAINST CARDIAC GLYCOSIDE AND UTILIZATION THEREOF” (SUNTORY LIMITED, priority 1990, dated 1992).

Tested on: Na^+,K^+-ATPase
Experiment: Na^+,K^+-ATPase inhibition rate (potassium ion concentration antagonist type), molybdate colorimetry
Assay type: biochemical
Details: 1 µM
Protocol: It is known that ouabain inhibits the enzyme activity of Na^+,K^+-ATPase. As such the Na^+,K^+-ATPase inhibitory activity of the various substances used as antigens in Example 4, Part B was examined to investigate the correlation between that inhibitory activity and reactivity with the monoclonal antibody of the present invention.
1.35 ml of TES buffer (80 mM TES, 200 mM NaCl, 9 mM MgSO4·7H2O and 10 mM EGTA adjusted to pH 7.4 with NaOH), 0.27 ml of 0.2% ODG (octyl-D-glucoside), 0.27 ml of 10^-5 M sample (10^-6 M during reaction), and 0.44 ml of distilled water were added to a plastic test tube which was then placed in an incubator at 25°C. 0.27 ml of 1 mM or 100 mM KCl and 50 µl of ATPase solution (stock solution, in which 5 units of […] (Sigma) were dissolved in 2 ml of 10 mM TES (pH 7.4) diluted 2.5 times with 10 mM TES (pH 7.4) as necessary) were added followed by incubation for 5 - 10 minutes at 25°C. Next, the reaction was started by addition of 50 µl of ATP solution (71 mg of ATP dissolved in 5 ml of 10 mM TES (pH 7.4) (Sigma)).
The reaction was allowed to proceed at 25°C for 30 minutes in the case of using 1 mM KCl (0.1 mM in the reaction solution), and for 10 minutes in the case of using 100 mM KCl (10 mM in the reaction solution). Next, 0.03 ml of 1% Triton™ X-100 solution (in distilled water) and 0.3 ml of 2.5% AmM solution (5 g of (NH4)6Mo7O24·4H2O dissolved in 6 N H2SO4 and brought to a volume of 200 ml) were mixed immediately prior to use (for a total of 0.33 ml) and then added to the reaction solution followed by incubation for 10 minutes at 25°C to stop the reaction and develop color. The absorbance of the reaction solution was then measured at 660 nm and the Na^+,K^+-ATPase inhibition rate (%) was calculated according to the following formula. Na^+ ,K^+ -ATPase Inhibition Rate (%) = [(Ao -Aw )/Ao ] × 100 [formula] Ao: Na^+,K^+-ATPase activity when sample not added Aw: Na^+,K^+-ATPase activity when sample added

[1] = 0.1 mM K^+ in the reaction solution, sample 10^-6 M during reaction, 30 minutes at 25°C
[2] = 10 mM K^+ in the reaction solution, sample 10^-6 M during reaction, 10 minutes at 25°C

With `C[C@H]1CCCC[C@H]1O` (relative stereo) [cis-2-Methylcyclohexanol] as the compound, how does the “(Na^+,K^+-ATPase Inhibition) Rate (%) 0.1 mM K^+” value [1] read?
The value was -2%.

What about the “(Na^+,K^+-ATPase Inhibition) Rate (%) 10 mM K^+” value [2] of the same compound?
The value was 2%.

Which “(Na^+,K^+-ATPase Inhibition) Rate (%) 0.1 mM K^+” value [1] does the source give for `O=C1C=CCO1` [2(5H)-Furanone] here?
The value was 6%.

And the “(Na^+,K^+-ATPase Inhibition) Rate (%) 10 mM K^+” value [2]?
Its value is -5%.

`CCCCC/C=C\C/C=C\C/C=C\C/C=C\CCCC(=O)O` [Arachidonic acid] was tested. Which “(Na^+,K^+-ATPase Inhibition) Rate (%) 0.1 mM K^+” value [1] did it give?
The value was -5%.

And the “(Na^+,K^+-ATPase Inhibition) Rate (%) 10 mM K^+” value [2]?
The value was -2%.

Which “(Na^+,K^+-ATPase Inhibition) Rate (%) 0.1 mM K^+” value [1] does the source give for `C[C@H](CCC(=O)O)[C@H]1CC[C@H]2[C@@H]3[C@H](O)C[C@@H]4C[C@H](O)CC[C@]4(C)[C@H]3C[C@H](O)[C@]12C` [Cholic acid] here?
Its value is 2%.

What about the “(Na^+,K^+-ATPase Inhibition) Rate (%) 10 mM K^+” value [2] of the same compound?
The value was -3%.

Which results are given for `C[C@]12C[C@H](O)[C@H]3[C@@H](CCC4=CC(=O)CC[C@@]43C)[C@@H]1CC[C@@H]2C(=O)CO` [Corticosterone]?
(Na^+,K^+-ATPase Inhibition) Rate (%) 0.1 mM K^+ [1]: -4%; (Na^+,K^+-ATPase Inhibition) Rate (%) 10 mM K^+ [2]: 1%

Which results are given for `OC1CCCCC1` [Cyclohexanol]?
(Na^+,K^+-ATPase Inhibition) Rate (%) 0.1 mM K^+ [1]: -3%; (Na^+,K^+-ATPase Inhibition) Rate (%) 10 mM K^+ [2]: 0.4%

`C[C@]12CC[C@H](O)C[C@H]1CC[C@@H]1[C@@H]2CC[C@]2(C)[C@@H](C3=CC(=O)OC3)CC[C@]12O` [Digitoxigenin] was tested. Which “(Na^+,K^+-ATPase Inhibition) Rate (%) 0.1 mM K^+” value did it give?
Its value is 44%.

What about the “(Na^+,K^+-ATPase Inhibition) Rate (%) 10 mM K^+” value of the same compound?
Its value is 17%.

How did the “(Na^+,K^+-ATPase Inhibition) Rate (%) 0.1 mM K^+” value [1] turn out when `C[C@H]1O[C@@H](O[C@H]2[C@@H](O)C[C@H](O[C@H]3[C@@H](O)C[C@H](O[C@H]4CC[C@@]5(C)[C@H](CC[C@@H]6[C@@H]5CC[C@]5(C)[C@@H](C7=CC(=O)OC7)CC[C@]65O)C4)O[C@@H]3C)O[C@@H]2C)C[C@H](O)[C@@H]1O` [Digitoxin] was run?
The value was 41%.

And the “(Na^+,K^+-ATPase Inhibition) Rate (%) 10 mM K^+” value [2]?
Its value is 11%.

How did the “(Na^+,K^+-ATPase Inhibition) Rate (%) 0.1 mM K^+” value turn out when `C[C@H]1O[C@@H](O[C@H]2[C@@H](O)C[C@H](O[C@H]3[C@@H](O)C[C@H](O[C@H]4CC[C@@]5(C)[C@H](CC[C@@H]6[C@@H]5C[C@@H](O)[C@]5(C)[C@@H](C7=CC(=O)OC7)CC[C@]65O)C4)O[C@@H]3C)O[C@@H]2C)C[C@H](O)[C@@H]1O` [Digoxin] was run?
Its value is 45%.

What about the “(Na^+,K^+-ATPase Inhibition) Rate (%) 10 mM K^+” value of the same compound?
The value was 18%.

How did the “(Na^+,K^+-ATPase Inhibition) Rate (%) 0.1 mM K^+” value [1] turn out when `C[C@]12CCC(=O)C=C1CC[C@@H]1[C@@H]2[C@@H](O)C[C@@]2(C)[C@H]1CC[C@]2(O)C(=O)CO` [Hydrocortisone] was run?
Its value is -3%.

And the “(Na^+,K^+-ATPase Inhibition) Rate (%) 10 mM K^+” value [2]?
Its value is -1%.

With `C[C@@H]1OC(O)[C@H](O)[C@H](O)[C@H]1O` (stereo partly drawn) [L-Rhamnose] as the compound, how does the “(Na^+,K^+-ATPase Inhibition) Rate (%) 0.1 mM K^+” value [1] read?
Its value is -2%.

And the “(Na^+,K^+-ATPase Inhibition) Rate (%) 10 mM K^+” value [2]?
The value was -4%.

Which results are given for `CCCCC/C=C\C/C=C\CCCCCCCC(=O)O` [Linoleic acid]?
(Na^+,K^+-ATPase Inhibition) Rate (%) 0.1 mM K^+ [1]: -7%; (Na^+,K^+-ATPase Inhibition) Rate (%) 10 mM K^+ [2]: -5%

`CCCCCCCCCCCCCCCCOC[C@@H](O)COP(=O)([O-])OCC[N+](C)(C)C` [LisoPAF, L-α-lysophosphatidylcholine-γ-O-hexadecyl] was tested. Which “(Na^+,K^+-ATPase Inhibition) Rate (%) 0.1 mM K^+” value [1] did it give?
The value was -2%.

What about the “(Na^+,K^+-ATPase Inhibition) Rate (%) 10 mM K^+” value [2] of the same compound?
Its value is 0.4%.

With `C[C@]12C[C@@H](O)[C@H]3[C@@H](CC[C@]4(O)C[C@@H](O)C[C@@H](O)[C@]34CO)[C@@]1(O)CC[C@@H]2C1=CC(=O)OC1` [Ouabagenin] as the compound, how does the “(Na^+,K^+-ATPase Inhibition) Rate (%) 0.1 mM K^+” value [1] read?
Its value is 44%.

And the “(Na^+,K^+-ATPase Inhibition) Rate (%) 10 mM K^+” value [2]?
Its value is 6%.

With `C[C@@H]1O[C@@H](O[C@H]2C[C@@H](O)[C@]3(CO)[C@H]4[C@H](O)C[C@]5(C)[C@@H](C6=CC(=O)OC6)CC[C@]5(O)[C@@H]4CC[C@]3(O)C2)[C@H](O)[C@H](O)[C@H]1O` [Ouabain] as the compound, how does the “(Na^+,K^+-ATPase Inhibition) Rate (%) 0.1 mM K^+” value [1] read?
Its value is 41%.

And the “(Na^+,K^+-ATPase Inhibition) Rate (%) 10 mM K^+” value [2]?
Its value is 18%.

How did the “(Na^+,K^+-ATPase Inhibition) Rate (%) 0.1 mM K^+” value [1] turn out when `CCCCCCCCCCCCCCCCOC[C@H](COP(=O)([O-])OCC[N+](C)(C)C)OC(C)=O` [PAF, L-d-phosphatidylcholine-β-aceyl-γ-O-hexadecyl] was run?
The value was -3%.

And the “(Na^+,K^+-ATPase Inhibition) Rate (%) 10 mM K^+” value [2]?
The value was 1%.

How did the “(Na^+,K^+-ATPase Inhibition) Rate (%) 0.1 mM K^+” value [1] turn out when `CC(=O)[C@H]1CC[C@H]2[C@@H]3CCC4=CC(=O)CC[C@]4(C)[C@H]3CC[C@]12C` [Progesterone] was run?
The value was 3%.

And the “(Na^+,K^+-ATPase Inhibition) Rate (%) 10 mM K^+” value [2]?
Its value is 5%.

`C[C@]12CC[C@H](O)C[C@@H]1CC[C@@H]1[C@@H]2CC[C@]2(C)[C@@H](C3=CC(=O)OC3)CC[C@]12O` [Uzarigenin] was tested. Which “(Na^+,K^+-ATPase Inhibition) Rate (%) 0.1 mM K^+” value did it give?
The value was 42%.

And the “(Na^+,K^+-ATPase Inhibition) Rate (%) 10 mM K^+” value?
The value was 6%.

How did the “(Na^+,K^+-ATPase Inhibition) Rate (%) 0.1 mM K^+” value [1] turn out when `C1CC[C@H]2CCC[C@H]2C1` [cis-Hydrindane] was run?
The value was -1%.

And the “(Na^+,K^+-ATPase Inhibition) Rate (%) 10 mM K^+” value [2]?
Its value is 0.5%.

What does the source list for `C[C@]12CCC(=O)C=C1CC[C@@H]1[C@@H]2[C@@H](O)C[C@]2(C=O)[C@@H](C(=O)CO)CC[C@@H]12` [α-Aldosterone]?
(Na^+,K^+-ATPase Inhibition) Rate (%) 0.1 mM K^+ [1]: 1%; (Na^+,K^+-ATPase Inhibition) Rate (%) 10 mM K^+ [2]: -11%
